This note sets out measurements from ChEMBL document CHEMBL3112551, “Synthesis of 2H-1,3-benzoxazin-4(3H)-one derivatives containing indole moiety: their in vitro evaluation against PDE4B” (Bioorg Med Chem Lett, 2014).

The target in test [1] is 3',5'-cyclic-AMP phosphodiesterase 4B (Homo sapiens) (UniProt Q07343). As to the kind of experiment: Inhibition of PDE4B (unknown origin) expressed in HEK293 cells assessed as increase in forskolin-stimulated cAMP level at 30 uM preincubated for 30 mins followed by forskolin-stimulation measured after 4 hrs by luciferase reporter gene assay relative to control. The format is functional, cell-based. On the technique in general: Changes in cAMP serve as a functional read-out for many G protein-coupled receptors.
Chain of 3',5'-cyclic-AMP phosphodiesterase 4B (Homo sapiens) (Q07343 whole entry): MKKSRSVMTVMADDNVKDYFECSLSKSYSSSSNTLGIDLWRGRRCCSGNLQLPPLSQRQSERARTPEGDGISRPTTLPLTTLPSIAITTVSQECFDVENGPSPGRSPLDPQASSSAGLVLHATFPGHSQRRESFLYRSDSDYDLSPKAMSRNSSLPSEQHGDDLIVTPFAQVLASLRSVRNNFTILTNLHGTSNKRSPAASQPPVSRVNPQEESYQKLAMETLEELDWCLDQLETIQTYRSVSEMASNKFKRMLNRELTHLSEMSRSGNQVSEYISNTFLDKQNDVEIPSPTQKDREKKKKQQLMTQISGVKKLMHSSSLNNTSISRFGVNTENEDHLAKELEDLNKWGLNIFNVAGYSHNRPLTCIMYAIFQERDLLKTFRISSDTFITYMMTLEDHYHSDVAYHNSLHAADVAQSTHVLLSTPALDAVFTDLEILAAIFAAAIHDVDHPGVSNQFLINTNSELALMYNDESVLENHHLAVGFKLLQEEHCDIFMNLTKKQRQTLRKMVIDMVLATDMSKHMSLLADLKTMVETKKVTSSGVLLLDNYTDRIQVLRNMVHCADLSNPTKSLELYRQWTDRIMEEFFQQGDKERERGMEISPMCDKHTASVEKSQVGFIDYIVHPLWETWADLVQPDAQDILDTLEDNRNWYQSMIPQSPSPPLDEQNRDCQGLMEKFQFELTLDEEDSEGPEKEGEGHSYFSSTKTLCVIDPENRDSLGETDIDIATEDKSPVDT

Test [2] shares this target. As to the kind of experiment: Inhibition of PDE4B (unknown origin) expressed in HEK293 cells assessed as increase in forskolin-stimulated cAMP level preincubated for 30 mins followed by forskolin-stimulation measured after 4 hrs by luciferase reporter gene assay. The format is functional, cell-based.

Structures are written as SMILES. Activity calls are given as the source filed them. The rule behind the calls is not given here.

As for `CS(=O)(=O)n1c(COCCN2COc3ccccc3C2=O)cc2cc(F)ccc21`, the inhibition entry in test [1] is “Active”.

`O=C1c2ccccc2OCN1CCOCc1cc2ccccc2o1`: the inhibition entry in test [1] is “Active”.

For the compound `CS(=O)(=O)n1c(COCCN2COc3ccccc3C2=O)cc2cc([N+](=O)[O-])ccc21`, in test [1], the fold change (FC) was more than 5. Besides, the inhibition entry in test [2] was “Dose-dependent effect”.

With `CC(=O)c1ccc2c(c1)cc(COCCN1COc3ccccc3C1=O)n2S(C)(=O)=O`, the inhibition result in test [1] is “inactive”.

With `CS(=O)(=O)n1c(COCCN2COc3ccccc3C2=O)cc2cc(C(F)(F)F)ccc21`, in test [1], the inhibition result is “Active”.

Take `CS(=O)(=O)n1c(COCCN2COc3ccccc3C2=O)cc2cc(Cl)ccc21`: the inhibition result in test [1] was “Active”.

As to `COc1ccc(C2CNC(=O)C2)cc1OC1CCCC1` (centres undefined), in test [1], the fold change (FC) was more than 7.

Consider `CS(=O)(=O)n1c(COCCN2COc3ccccc3C2=O)cc2cc(C#N)ccc21`, for which the inhibition result in test [1] is “Active”.
